Measured values as given in patent publication US8779141B2, “Viral inhibitors” (Gilead Sciences, Inc., priority 2002, dated 2014).
≈ marks a conversion by molar mass, not a printed value. Like-named read-outs stand apart in the source and are kept apart here.

Tests used:
[1] = Cytostatic effect on exponentially growing MDBK cells (MTS); assay type: cell-based, Bovine; details: bovine; Table 9; reduction of growth of exponentially growing MDBK cells by 50%; mean of 2-5 determinations
Procedure: Madin-Darbey Bovine Kidney (MDBK) cells were maintained in Dulbecco's modified Eagle medium (DMEM) supplemented with BVDV-free 5% fetal calf serum ([…]) at 37° C. in a humidified, 5% CO2 atmosphere. […] Vero cells were maintained in the same way as MDBK cells. […] The effect of the drugs on exponentially growing MDBK cells was assessed as follows. Cells were seeded at a density of 5000 cell/well in 96 well plates in MEM medium (Gibco) supplemented with 10% fetal calf serum, 2 mM L-glutamine (Life Technologies) and bicarbonate (Life Technologies). […] Cultures were then again further incubated for 3 days after which the effect on cell growth was quantified by means of the MTS method (Promega).

[2] = system: BVDV-1 (strain PE515); assay: Anti-BVDV assay, virus-induced cytopathic effect in MDBK cells (MTS); assay type: cell-based, Bovine Viral Diarrhea Virus; details: Bovine viral diarrhea virus isolates and strains
Procedure: Madin-Darbey Bovine Kidney (MDBK) cells were maintained in Dulbecco's modified Eagle medium (DMEM) supplemented with BVDV-free 5% fetal calf serum (DMEME-FCS) at 37° C. in a humidified, 5% CO2 atmosphere. BVDV-1 (strain PE515) was used to assess the antiviral activity in MDBK cells. Vero cells were maintained in the same way as MDBK cells. Vero cells were infected with Coxsackie B3 virus (strain Nancy).
Ninety-six-well cell culture plates were seeded with MDBK cells in DMEM-FCS so that cells reached 24 hr later confluency. Then medium was removed and serial 5-fold dilutions of the test compounds were added in a total volume of 100 ul, after which the virus inoculum (100 ul) was added to each well. […] Uninfected cells and cells receiving virus without compound were included in each assay plate. After 5 days, medium was removed and 90 μl of DMEM-FCS and 10 ul of MTS/PMS solution (Promega) was added to each well. Following a 2 hr incubation period at 37° C. the optical density of the wells was read at 498 nm in a microplate reader.

[3] = Table 9, reduction of virus induced cytopathic effect in MDBK cells by 50%, BVDV strain PE515, mean of 2-5 determinations, read-out: EC50

| Compound | CC50 at 3 days [1] [µg/mL] | EC50 [2, 3] [µg/mL] | EC50 ([2]; MDBK) [µg/mL] |
| --- | --- | --- | --- |
| FC(F)(F)c1ccc(Cn2ccc3nc(-c4ccccc4)nc-3c2)cc1 [GPJN-24, 2-Phenyl-5-[[4-(trifluoromethyl)phenyl]methyl]-5H-imidazo[4,5-c]pyridine] | 21 (≈ 59.4 µM) | 0.04 (≈ 0.113 µM) |  |
| Clc1ccccc1-c1nc2ccn(Cc3ccc(Br)cc3)cc-2n1 [GPJN-54, 5-[(4-Bromophenyl)methyl]-2-(2-chlorophenyl)-5H-imidazo[4,5-c]pyridine] | 35 (≈ 87.8 µM) | 0.1 (≈ 0.251 µM) |  |
| Brc1cccc(-c2nc3ccn(Cc4ccc(I)cc4)cc-3n2)c1 [GPJN-79, 2-(3-Bromophenyl)-5-[(4-iodophenyl)methyl]-5H-imidazo[4,5-c]pyridine] | > 100 | 0.083 (≈ 0.169 µM) |  |
| Fc1cccc(Cn2ccc3nc(-c4ccccc4)nc-3c2)c1 [GPJN-18, 5-[(3-Fluorophenyl)methyl]-2-phenyl-5H-imidazo[4,5-c]pyridine] | 55 (≈ 181 µM) | 0.019 (≈ 0.0626 µM) |  |
| Fc1cccc(F)c1-c1nc2ccn(Cc3ccccc3)cc-2n1 [GPJN-1, 5-Benzyl-2-(2,6-difluorophenyl)-5H-imidazo[4,5-c]pyridine] | > 83.3 | 0.24 (≈ 0.747 µM) |  |
| Ic1ccc(Cn2ccc3nc(-c4ccccc4)nc-3c2)cc1 [GPJN-68, 5-[(4-Iodophenyl)methyl]-2-phenyl-5H-imidazo[4,5-c]pyridine] | 17 (≈ 41.3 µM) | 0.026 (≈ 0.0632 µM) |  |
| Fc1cc(F)c(Cn2ccc3nc(-c4c(F)cccc4F)nc-3c2)c(F)c1 [GPJN-41, 2-(2,6-Difluorophenyl)-5-[(2,4,6-trifluorophenyl)methyl]-5H-imidazo[4,5-c]pyridine] | > 100 | 0.58 (≈ 1.55 µM) |  |
| N#Cc1ccc(Cn2ccc3nc(-c4ccccc4)nc-3c2)cc1 [GPJN-23, 4-[(2-Phenyl-5H-imidazo[4,5-c]pyridin-5-yl)methyl]-benzonitrile] | 46 (≈ 148 µM) | 0.014 (≈ 0.0451 µM) |  |
| c1ccc(-c2nc3ccn(Cc4ccncc4)cc-3n2)cc1 [GPJN-31, 2-Phenyl-5-(4-pyridinylmethyl)-5H-imidazo[4,5-c]pyridine] | > 100 | 0.455 (≈ 1.59 µM) |  |
| Fc1ccc(Cn2ccc3nc(-c4c(F)cccc4F)nc-3c2)cc1 [GPJN-39, 2-(2,6-Difluorophenyl)-5-[(4-fluorophenyl)methyl]-5H-imidazo[4,5-c]pyridine] | > 100 | 0.245 (≈ 0.722 µM) |  |
| COc1ccccc1Cn1ccc2nc(-c3ccccc3)nc-2c1 [GPJN-11, 5-[(2-Methoxyphenyl)methyl]-2-phenyl-5H-imidazo[4,5-c]pyridine] | 36 (≈ 114 µM) | 0.032 (≈ 0.101 µM) |  |
| CC(C)CCn1ccc2nc(-c3ccccc3)nc-2c1 [GPJN-38, 5-(3-Methylbutyl)-2-phenyl-5H-imidazo[4,5-c]pyridine] | 50 (≈ 188 µM) | 0.235 (≈ 0.886 µM) |  |
| Clc1cccc(-c2nc3ccn(Cc4ccc(Br)cc4)cc-3n2)c1 [GPJN-55, 5-[(4-Bromophenyl)methyl]-2-(3-chlorophenyl)-5H-imidazo[4,5-c]pyridine] | > 100 | 0.06 (≈ 0.15 µM) |  |
| Clc1ccc(Cn2ccc3nc(-c4cccc(Br)c4)nc-3c2)cc1 [GPJN-80, 2-(3-Bromophenyl)-5-[(4-chlorophenyl)methyl]-5H-imidazo[4,5-c]pyridine] | > 100 | 0.18 (≈ 0.451 µM) |  |
| Fc1ccc(Cn2ccc3nc(-c4cc(F)ccc4F)nc-3c2)c(F)c1 [GPC-13, 2-(2,5-Difluorophenyl)-5-[(2,4-difluorophenyl)methyl]-5H-imidazo[4,5-c]pyridine] | > 100 | 0.067 (≈ 0.188 µM) |  |
| Fc1cccc(F)c1Cn1ccc2nc(-c3ccccc3)nc-2c1 [GPJN-3, 5-[(2,6-Difluorophenyl)methyl]-2-phenyl-5H-imidazo[4,5-c]pyridine] | 60 (≈ 187 µM) | 0.06 (≈ 0.187 µM) |  |
| c1ccc(-c2nc3ccn(Cc4ccc5ccccc5c4)cc-3n2)cc1 [GPJN-26, 5-(2-Naphthalenylmethyl)-2-phenyl-5H-imidazo[4,5-c]pyridine] | > 100 | 0.041 (≈ 0.122 µM) |  |
| Cc1ccccc1Cn1ccc2nc(-c3ccccc3)nc-2c1 [GPJN-20, 5-[(2-Methylphenyl)methyl]-2-phenyl-5H-imidazo[4,5-c]pyridine] | 28 (≈ 93.5 µM) | 0.165 (≈ 0.551 µM) |  |
| Clc1ccccc1Cn1ccc2nc(-c3ccccc3)nc-2c1 [GPJN-7, 5-[(2-Chlorophenyl)methyl]-2-phenyl-5H-imidazo[4,5-c]pyridine] | 22 (≈ 68.8 µM) | 0.042 (≈ 0.131 µM) |  |
| CC(C)=CCn1ccc2nc(-c3ccccc3)nc-2c1 [GPJN-28, 5-(3-Methyl-2-butenyl)-2-phenyl-5H-imidazo[4,5-c]pyridine] | > 75 | 0.325 (≈ 1.23 µM) |  |

| Compound | CC50 at 3 days [1] [µg/mL] | EC50 [2, 3] [µg/mL] | EC50 ([2]; MDBK) [µg/mL] |
| --- | --- | --- | --- |
| Brc1ccc(Cn2ccc3nc(-c4ccccc4)nc-3c2)cc1 [GPJN-22, 5-[(4-Bromophenyl)methyl]-2-phenyl-5H-imidazo[4,5-c]pyridine] | 13 (≈ 35.7 µM) | 0.029 (≈ 0.0796 µM) |  |
| c1ccc(Cn2ccc3nc(-c4ccccc4)nc-3c2)cc1 [GPJN-4, 5-Benzyl-2-phenyl-5H-imidazo[4,5-c]pyridine] | 46 (≈ 161 µM) | 0.04 (≈ 0.14 µM) |  |
| Fc1ccc(Cn2ccc3nc(-c4ccccc4)nc-3c2)cc1 [GPJN-19, 5-[(4-Fluorophenyl)methyl]-2-phenyl-5H-imidazo[4,5-c]pyridine] | 40 (≈ 132 µM) | 0.013 (≈ 0.0429 µM) |  |
| Cc1ccc(Cn2ccc3nc(-c4ccccc4)nc-3c2)cc1 [GPJN-15, 5-[(4-Methylphenyl)methyl]-2-phenyl-5H-imidazo[4,5-c]pyridine] | 29 (≈ 96.9 µM) | 0.009 (≈ 0.0301 µM) |  |
| Brc1ccc(Cn2ccc3nc(-c4cccc(Br)c4)nc-3c2)cc1 [GPJN-65, 2-(3-Bromophenyl)-5-[(4-bromophenyl)methyl]-5H-imidazo[4,5-c]pyridine] | > 100 |  | 0.01 (≈ 0.0226 µM) |
| CCc1nc2ccn(Cc3ccc(Br)cc3)cc-2n1 [GPJN-48, 5-[(4-Bromophenyl)methyl]-2-ethyl-5H-imidazo[4,5-c]pyridine] | > 100 | 0.351 (≈ 1.11 µM) |  |
| Cl.Clc1ccc(Cn2ccc3nc(-c4ccccc4)nc-3c2)cc1 [GPJN-9 xHCl, 5-[(4-Chlorophenyl)methyl]-2-phenyl-5H-imidazo[4,5-c]pyridine hydrochloride] |  | 0.016 |  |
| c1ccc(-c2nc3ccn(Cc4cccnc4)cc-3n2)cc1 [GPJN-35, 2-Phenyl-5-(3-pyridinylmethyl)-5H-imidazo[4,5-c]pyridine] | > 100 | 0.365 (≈ 1.27 µM) |  |
| COc1ccc(Cn2ccc3nc(-c4ccccc4)nc-3c2)cc1 [GPJN-13, 5-[(4-Methoxyphenyl)methyl]-2-phenyl-5H-imidazo[4,5-c]pyridine] | 45 (≈ 143 µM) | 0.043 (≈ 0.136 µM) |  |
| Brc1ccc(Cn2ccc3nc(-c4ccncc4)nc-3c2)cc1 [GPJN-49, 5-[(4-Bromophenyl)methyl]-2-(4-pyridinyl)-5H-imidazo[4,5-c]pyridine] | 62 (≈ 170 µM) | 0.18 (≈ 0.493 µM) |  |
| Brc1ccc(Cn2ccc3nc(-c4ccc5ccccc5c4)nc-3c2)cc1 [GPJN-63, 5-[(4-Bromophenyl)methyl]-2-(2-naphthalenyl)-5H-imidazo[4,5-c]pyridine] | 4.3 (≈ 10.4 µM) | 0.0042 (≈ 0.0101 µM) |  |
| Clc1cccc(Cn2ccc3nc(-c4ccccc4)nc-3c2)c1 [GPJN-8, 5-[(3-Chlorophenyl)methyl]-2-phenyl-5H-imidazo[4,5-c]pyridine] | 51 (≈ 159 µM) | 0.086 (≈ 0.269 µM) |  |
| COc1cccc(Cn2ccc3nc(-c4ccccc4)nc-3c2)c1 [GPJN-12, 5-[(3-Methoxyphenyl)methyl]-2-phenyl-5H-imidazo[4,5-c]pyridine] | 56 (≈ 178 µM) | 0.059 (≈ 0.187 µM) |  |
| c1ccc(OCCn2ccc3nc(-c4ccccc4)nc-3c2)cc1 [GPJN-73, 5-(2-Phenoxyethyl)-2-phenyl-5H-imidazo[4,5-c]pyridine] | > 100 | 0.017 (≈ 0.0539 µM) |  |
| Fc1ccccc1Cn1ccc2nc(-c3ccccc3)nc-2c1 [GPJN-17, 5-[(2-Fluorophenyl)methyl]-2-phenyl-5H-imidazo[4,5-c]pyridine] | 50 (≈ 165 µM) | 0.097 (≈ 0.32 µM) |  |
| C(=Cc1ccccc1)Cn1ccc2nc(-c3ccccc3)nc-2c1 [GPJN-75, 2-Phenyl-5-(3-phenyl-2-propenyl)-5H-imidazo[4,5-c]pyridine] | 31.7 (≈ 102 µM) | 0.018 (≈ 0.0578 µM) |  |
| CC(c1ccccc1)n1ccc2nc(-c3ccccc3)nc-2c1 (stereo not shown) [GPJN-33, 2-Phenyl-5-(1-phenylethyl)-5H-imidazo[4,5-c]pyridine] | 70 (≈ 234 µM) | 0.2 (≈ 0.668 µM) |  |
| Cc1cccc(Cn2ccc3nc(-c4ccccc4)nc-3c2)c1 [GPJN-21, 5-[(3-Methylphenyl)methyl]-2-phenyl-5H-imidazo[4,5-c]pyridine] | 22 (≈ 73.5 µM) | 0.022 (≈ 0.0735 µM) |  |
| Clc1ccc(Cn2ccc3nc(-c4ccccc4)nc-3c2)cc1 [GPJN-9, 5-[(4-Chlorophenyl)methyl]-2-phenyl-5H-imidazo[4,5-c]pyridine] |  | 0.049 (≈ 0.153 µM) |  |
